For 38 compounds, melting point results are on record in patent publication US7115750B1, “Melanin concentrating hormone antagonist” (Takeda Pharmaceutical Company Limited, priority 1999, dated 2006).

Broadly, the melting point is the temperature of the solid-liquid transition.

`CN(C)CCC1=Cc2ccc(NC(=O)c3ccc(-c4ccccc4)cc3)cc2CC1` [Example 208, N-[6-[2-(Dimethylamino)ethyl]-7,8-dihydro-2-naphthalenyl][1,1′-biphenyl]-4-carboxamide] gave a melting point of 148 to 150 °C.
In the case of `O=C(Nc1ccc2c(c1)CCC(CN1CCCC1)=C2)N1CC=C(c2ccc(F)cc2)CC1` [Example 158], the melting point is 206 to 207 °C.
In the case of `CN(C)CC1CCCc2cc(NC(=O)c3ccc(-c4ccc(F)cc4)cc3)ccc2C1` (centres unmarked) [Example 45, 4′-Fluoro-N-[6-[(dimethylamino)methyl]-6,7,8,9-tetrahydro-5H-benzo[a]cyclohepten-2-yl][1,1′-biphenyl]-4-carboxamide], the melting point fell in the range of 167 to 169 °C.
On to `CN(C)CC1=Cc2ccc(NC(=O)c3ccc(-c4ccccc4Cl)cc3)cc2CC1` [Example 50, 2′-Chloro-N-[6-[(dimethylamino)methyl]-7,8-dihydro-2-naphthalenyl][1,1′-biphenyl]-4-carboxamide], for which the melting point is 145 to 147 °C.
`CN(C)CC1CCc2cc(NC(=O)c3ccc(-c4ccc(CO)cc4)cc3)ccc2C1` (centres unmarked) [Example 21, N-[6-[(N,N-Dimethylamino)methyl]-5,6,7,8-tetrahydro-2-naphthalenyl]-4′-(hydroxymethyl)[1,1′-biphenyl]-4-carboxamide] registered a melting point of 138 to 139 °C.
As to `Cl.O=C(Nc1ccc(C(=O)C2CCCNC2)cc1)c1ccc(-c2ccc(Cl)cc2)cc1` (centres unmarked), the melting point was 222 to 225 °C (dec.).
`CC1=C(CN2CCCC2)CCc2cc(NC(=O)c3ccc(-c4ccc(F)cc4)cc3)ccc21` [Example 229, 4′-Fluoro-N-[5-methyl-6-(1-pyrrolidinylmethyl)-7,8-dihydro-2-naphthalenyl][1,1′-biphenyl]-4-carboxamide] had a melting point of 199 to 201 °C.
`CN(C)CC1CCc2cc(NC(=O)c3ccc(C(=O)Nc4ccccc4)cc3)ccc2C1` (centres unmarked) [Example 10, N^1-[2-(N,N-Dimethylamino)methyl-6-tetralinyl]-N^4-phenyl terephthalamide]: the melting point is 238 to 240 °C (dec.).
In the case of `Cl.O=C(Nc1ccc(CC2CCCNC2)cc1)c1ccc(-c2ccc(Cl)cc2)cc1` (centres unmarked), the melting point is 200 °C (dec.).
As for `COc1ccc(-c2ccc(C(=O)Nc3ccc4c(c3)OCC(CN3CCCC3)=C4)cn2)cc1` [Example 141, 6-(4-Methoxyphenyl)-N-[3-(1-pyrrolidinylmethyl)-2H-chromen-7-yl]nicotinamide], the melting point was in the range of 243 to 245 °C.
For the compound `CN(C)CC1CCc2cc(NC(=O)c3ccc(-c4ccc(C(=O)O)cc4)cc3)ccc2C1` (centres unmarked) [Example 40, 4′-[[[6-[(N,N-Dimethylamino)methyl]-5,6,7,8-tetrahydro-2-naphthalenyl]amino]carbonyl][1,1′-biphenyl]-4-carboxylic acid], the melting point is 143 °C (dec.).
As for `Cc1ccc(C2CCN(C(=O)Nc3ccc4c(c3)CCC(CN3CCCC3)=C4)CC2)cc1` [Example 155, 4-(4-Methylphenyl)-N-[6-(1-pyrrolidinylmethyl)-7,8-dihydro-2-naphthalenyl]-1-piperidinecarboxamide], the melting point fell in the range of 197 to 198 °C.
The compound `O=C(Nc1ccc2c(c1)CCC(CN1CCCC1)=C2)c1ccc(-c2ccc(Cl)cc2)nc1` [Example 162, 6-(4-Chlorophenyl)-N-[6-(1-pyrrolidinylmethyl)-7,8-dihydro-2-naphthalenyl]nicotinamide] yielded a melting point of 252 to 253 °C.
Compound `CN(C)CC1CCCc2cc(NC(=O)c3ccc(-c4ccc(Cl)cc4)cc3)ccc2C1` (centres unmarked) [Example 46] returned a melting point of 173 to 175 °C.
`CC1=C(CN(C)C)CCc2cc(NC(=O)c3ccc(-c4ccc(Cl)cc4)cc3)ccc21` [Example 111, 4′-Chloro-N-[6-[(dimethylamino)methyl]-5-methyl-7,8-dihydro-2-naphthalenyl][1,1′-biphenyl]-4-carboxamide] gave a melting point of 199 to 204 °C.
The result for `CN(C)CC1=Cc2ccc(NC(=O)c3ccc(-c4ccc(Cl)cc4)cc3)cc2CC1` [Example 41, 4′-Chloro-N-[6-[(N,N-dimethyl)methyl]-7,8-dihydro-2-naphthalenyl][1,1′-biphenyl]-4-carboxamide] reads 204 to 207 °C.
In turn, `Cc1ccc(C2CCN(C(=O)Nc3ccc4c(c3)CCC(CN3CCN(C)CC3)=C4)CC2)cc1` [Example 241, 4-(4-Methylphenyl)-N-[6-[(4-methyl-1-piperazinyl)methyl]-7,8-dihydro-2-naphthalenyl]-1-piperidinecarboxamide] gave a melting point of 214 to 216 °C.
`CN(C)CC1CCc2cc(NC(=O)c3ccc(Oc4ccccc4)cc3)ccc2C1` (centres unmarked) [Example 9, N-[2-(N,N-Dimethylamino)methyl-6-tetralinyl]-4-phenoxy benzamide] registered a melting point of 137 to 139 °C.
`CN(C)CC1CCc2cc(NC(=O)c3ccc(N4C(=O)c5ccccc5C4=O)cc3)ccc2C1` (centres unmarked) [Example 3, N-[2-(N,N-Dimethylamino)methyl-6-tetralinyl]-4-(1,3-dioxo-1,3-dihydro-2H-isoindol-2-yl) benzamide] had a melting point of 235 to 240 °C.
On to `CC1=C(CN2CCCC2)CCc2cc(NC(=O)c3ccc(-c4ccc(C)cc4)nc3)ccc21` [Example 228, 6-(4-Methylphenyl)-N-[5-methyl-6-(1-pyrrolidinylmethyl)-7,8-dihydro-2-naphthalenyl]nicotinamide], for which the melting point fell in the range of 175 to 176 °C.
The value for `CN(C)CC1CCc2cc(NC(=O)c3cc4ccccc4[nH]3)ccc2C1` (centres unmarked) [Example 122] was 190 to 192 °C; that for `CN(C)CC1CCc2cc(NC(=O)c3ccc(-c4ccc5c(c4)OCO5)cc3)ccc2C1` (centres unmarked) [Example 14] was 174 to 176 °C.
In turn, `CCOC(=O)c1ccc(-c2ccc(C(=O)Nc3ccc4c(c3)CCC(CN(C)C)C4)cc2)cc1` (centres unmarked) [Example 35, Ethyl 4′-[[[6-[(N,N-dimethylamino)methyl]-5,6,7,8-tetrahydro-2-naphthalenyl]amino]carbonyl][1,1′-biphenyl]-4-carboxylate] returned a melting point of 156 to 158 °C.
Compound `CNc1ccc(-c2ccc(C(=O)Nc3ccc4c(c3)CCC(CN(C)C)C4)cc2)cc1` (centres unmarked) [Example 38, N-[6-[(N,N-Dimethylamino)methyl]-5,6,7,8-tetrahydro-2-naphthalenyl]-4′-(methylamino)[1,1′-biphenyl]-4-carboxamide] yielded a melting point of 163 to 165 °C.
In turn, `CN(C)CC1CCc2cc(NC(=O)c3ccc(C(=O)c4ccccc4)cc3)ccc2C1` (centres unmarked) [Example 2, 4-Benzoyl-N-[2-(N,N-dimethylamino)methyl-6-tetralinyl]benzamide] showed a melting point of 193 to 196 °C.
In turn, `CC1=C(CN2CCCC2)CCc2cc(NC(=O)N3CCC(c4ccc(C)cc4)CC3)ccc21` [Example 238, 4-(4-Methylphenyl)-N-[5-methyl-6-(1-pyrrolidinylmethyl)-7,8-dihydro-2-naphthalenyl]-1-piperidinecarboxamide] showed a melting point of 159 to 160 °C.
As for `O=C(NCCN1CCCC1)c1ccc(NC(=O)c2ccc(-c3ccccc3)cc2)cc1` [compound 23], the melting point was 241 to 245 °C (dec.).
For `COc1ccc(-c2ccc(C(=O)Nc3ccc4c(c3)CCC(CN3CCCC3)=C4C)cn2)cc1` [Example 116, 6-(4-Methoxyphenyl)-N-[5-methyl-6-(1-pyrrolidinylmethyl)-7,8-dihydro-2-naphthalenyl]nicotinamide], the melting point is 165 to 167 °C.
For the compound `Cl.O=C(Nc1ccc(C(O)C2CCCNC2)cc1)c1ccc(-c2ccc(Cl)cc2)cc1` (centres unmarked), the melting point was 195 °C (dec.).
The compound `CN(C)CC1CCc2cc(NC(=O)c3ccc(-c4ccc(N)cc4)cc3)ccc2C1` (centres unmarked) [Example 33, 4′-Amino-N-[6-[(N,N-dimethylamino)methyl]-5,6,7,8-tetrahydro-2-naphthalenyl][1,1′-biphenyl]-4-carboxamide] displayed a melting point of 148 to 150 °C.
For the compound `O=C(Nc1ccc2c(c1)CCC(CN1CCCC1)=C2)c1ccc(-c2ccc(F)cc2)cc1` [Example 95, 4′-Fluoro-N-[6-(1-pyrrolidinylmethyl)-7,8-dihydro-2-naphthalenyl][1,1′-biphenyl]-4-carboxamide], the melting point was in the range of 189 to 192 °C.
On to `O=C(Nc1ccc2c(c1)CCC(CN1CCCCC1)C2)c1ccc(-c2ccc(F)cc2)cc1` (centres unmarked) [Example 54, 4′-Fluoro-N-[6-(1-piperidinylmethyl)-5,6,7,8-tetrahydro-2-naphthalenyl][1,1′-biphenyl]-4-carboxamide], for which the melting point was in the range of 179 to 181 °C.
In turn, `O=C(Nc1ccc2c(c1)CCC(CN1CCCC1)=C2)c1ccc(-c2ccccc2)nc1` [Example 153, 6-Phenyl-N-[6-(1-pyrrolidinylmethyl)-7,8-dihydro-2-naphthalenyl]nicotinamide] returned a melting point of 186 to 187 °C.
The value for `CN(C)CC1CCc2cc(NC(=O)c3ccc(-c4ccc(Cl)cc4)cc3)ccc2C1` (centres unmarked) [Example 12, (4′-Chlorobiphenyl-4-yl)-N-[2-(N,N-dimethylamino)methyl-6-tetralinyl]carboxamide] was 187 to 189 °C.
On to `CN(C)CCNC(=O)Cc1ccc(NC(=O)c2ccc(OCc3ccc(-c4ccccc4)cc3)cc2)cc1` [Example 191, 4-([1,1′-Biphenyl]-4-ylmethoxy)-N-[4-[2-[[2-(dimethylamino)ethyl]amino]-2-oxoethyl]phenyl]benzamide], for which the melting point lay within 204 to 208 °C.
For the compound `O=C(Nc1ccc2c(c1)CCC(CCN1CCCC1)=C2)c1ccc(-c2ccc(Cl)cc2)cc1` [Example 206, 4′-Chloro-N-[6-[2-(1-pyrrolidinyl)ethyl]-7,8-dihydro-2-naphthalenyl][1,1′-biphenyl]-4-carboxamide], the melting point was in the range of 207 to 209 °C.
As for `CN(C)CCNC(=O)Cc1ccc(NC(=O)c2ccc(OCc3ccccc3)cc2)cc1` [Example 195], the melting point was 190 to 192 °C (dec.).
The value for `O=C(Nc1ccc2c(c1)CCC(CN1CCCC1)=C2)N1CCC(c2ccc(Cl)cc2)CC1` [Example 165, 4-(4-Chlorophenyl)-N-[6-(1-pyrrolidinylmethyl)-7,8-dihydro-2-naphthalenyl]-1-piperidinecarboxamide] was 194 to 195 °C.
